Laboratory results taken from patent publication US9611277B2 (Janssen Pharmaceutica NV, priority 2013, dated 2017).
Where two headings read alike, the source gives them in different places.

Tests used:
human orexin 1 receptor = human orexin 1 receptor (Homo sapiens, UniProt O43613); assay: Human orexin 1 receptor radioligand binding; conditions: read-out: hOX1 Ki
Procedure: Data are analyzed using pc-Sandy macro and graphed on Graphpad Prism 5. For analysis, each concentration point is averaged from triplicate values and the averaged values are plotted on Graphpad Prism. The IC50 was determined by applying the following equation (GraphPad Prism 5.0, SanDiego) for one site competition where X=log (concentration) and Y=specific binding. Top denotes the total [^3H]-(1-(5-(2-fluoro-phenyl)-2-methyl-thiazol-4-yl)-1-((S)-2-(5-phenyl-(1,3,4)oxadiazol-2-ylmethyl)-pyrrolidin-1-yl)-methanone) binding, bottom denotes the nonspecific [^3H]-(1-(5-(2-fluoro-phenyl)-2-methyl-thiazol-4-yl)-1-((S)-2-(5-phenyl-(1,3,4)oxadiazol-2-ylmethyl)-pyrrolidin-1-yl)-methanone) binding. Graphpad Prism calculates Ki value from IC50 and the pre-determined Kd values for [^3H]-(1-(5-(2-fluoro-phenyl)-2-methyl-thiazol-4-yl)-1-((S)-2-(5-phenyl-(1,3,4)oxadiazol-2-ylmethyl)-pyrrolidin-1-yl)-methanone) and [3H]-EMPA. The Ki for each compound is then uploaded into 3DX. Each run comprises individual compounds in triplicate. The data in Table 1 and Table 2 represent averages from between 2-20 runs
Rat and Human Orexin 1 Receptor Radioligand Binding Studies
After centrifugation (2K×G, 5 min at 4° C.), the supernatant was aspirated and the pellets frozen and stored at −80° C. […] Each cell pellet from a 15 cm plate was resuspended in 10 mL, stored on ice, and homogenized for 45 sec prior to addition to the reactions. […] The final concentration of DMSO in the reactions is equal to or less than 0.1%. Total and nonspecific binding was determined in the absence and presence of 10 μM almorexant. The total volume of each reaction is 200 μL (20 μL of diluted compounds, 80 μL of [^3H]-(1-(5-(2-fluoro-phenyl)-2-methyl-thiazol-4-yl)-1-((S)-2-(5-phenyl-(1,3,4)oxadiazol-2-ylmethyl)-pyrrolidin-1-yl)-methanone) diluted in PBS and 100 μL of the cell suspension). […] The plates were washed 3 times by aspirating 30 ml PBS through the plates. Plates were dried in 55° C. oven for 60 min, scintillation fluid was added, and the radioactivity was counted on a Topcount (Packard).

human orexin 2 receptor = human orexin 2 receptor (Homo sapiens (Human), UniProt O43614); assay: Human orexin 2 receptor radioligand binding; conditions: read-out: hOX2 Ki
human orexin 2 receptor, sequence (O43614 whole entry): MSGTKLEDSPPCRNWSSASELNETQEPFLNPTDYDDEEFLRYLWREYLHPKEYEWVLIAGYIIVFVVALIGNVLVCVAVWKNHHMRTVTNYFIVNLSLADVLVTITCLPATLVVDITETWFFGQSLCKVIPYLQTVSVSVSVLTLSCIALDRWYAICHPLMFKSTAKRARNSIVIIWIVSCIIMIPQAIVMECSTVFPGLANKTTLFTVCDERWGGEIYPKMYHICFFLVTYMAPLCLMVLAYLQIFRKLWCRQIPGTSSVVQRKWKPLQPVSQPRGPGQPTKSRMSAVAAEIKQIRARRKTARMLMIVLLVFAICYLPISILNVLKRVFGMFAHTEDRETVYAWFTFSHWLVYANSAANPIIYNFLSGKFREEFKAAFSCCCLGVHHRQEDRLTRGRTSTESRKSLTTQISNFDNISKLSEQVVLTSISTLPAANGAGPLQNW
Outline: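 HEK293 cells stably expressing human OX2 receptor, homogenized, incubated with [3H]-EMPA and compounds (DMSO ≤0.1%); nonspecific binding with 10 μM almorexant. Filter-bound radioactivity counted by scintillation; IC50 from one-site competition fit of triplicates, Ki from IC50 and predetermined radioligand Kd, averaged over 2-20 runs.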

rat orexin 1 receptor = rat orexin 1 receptor (Rattus norvegicus, UniProt P56718); assay: Rat orexin 1 receptor radioligand binding; conditions: read-out: rOX1 Ki
Outline: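 Competition binding with the tritiated thiazolyl-pyrrolidinyl-methanone radioligand in PBS on homogenized rat or human OX1R-expressing cell suspensions, ≤0.1% DMSO; nonspecific binding defined with 10 μM almorexant. Bound radioactivity read by scintillation after filtration; IC50 from one-site competition fit, converted to Ki using pre-determined radioligand Kd.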

[1] = human orexin 1 receptor, averages of 2-20 runs
[2] = human orexin 2 receptor, averages of 2-20 runs
[3] = rat orexin 1 receptor, averages of 2-20 runs

Ki (human orexin 1 receptor; [1])	Ki (human orexin 2 receptor; [2])	Ki (rat orexin 1 receptor; [3])	SMILES	Ki (human orexin 1 receptor)	Ki (human orexin 2 receptor)	Ki (rat orexin 1 receptor)
19 nM	248 nM	15 nM	Cc1ccc(-n2nccn2)c(C(=O)N2C[C@H]3C[C@@H](Nc4cnc(C(F)(F)F)cn4)[C@@H]2C3)n1 [Example 61, (6-methyl-3-(2H-1,2,3-triazol-2-yl)pyridin-2-yl)((1S,4S,6R)-6-((5-(trifluoromethyl)pyrazin-2-yl)amino)-2-azabicyclo[2.2.1]heptan-2-yl)methanone]	–	–	–
19 nM	569 nM	28 nM	Cc1ccc(-n2nccn2)c(C(=O)N2C[C@H]3C[C@@H](Nc4ncc(C(F)(F)F)cn4)[C@@H]2C3)n1 [Example 62, (6-methyl-3-(2H-1,2,3-triazol-2-yl)pyridin-2-yl)((1S,4S,6R)-6-((5-(trifluoromethyl)pyrimidin-2-yl)amino)-2-azabicyclo[2.2.1]heptan-2-yl)methanone]	–	–	–
5 nM	181 nM	2 nM	O=C(c1cccc(F)c1-c1ncccn1)N1C[C@H]2C[C@@H](Nc3ccc(C(F)(F)F)cn3)[C@@H]1C2 [Example 66, (3-fluoro-2-(pyrimidin-2-yl)phenyl)((1S,4S,6R)-6-((5-(trifluoromethyl)pyridin-2-yl)amino)-2-azabicyclo[2.2.1]heptan-2-yl)methanone]	–	–	–
7 nM	264 nM	7 nM	O=C(c1cccc(F)c1-c1ncccn1)N1C[C@H]2C[C@@H](Nc3cnc(C(F)(F)F)cn3)[C@@H]1C2 [Example 67, (3-fluoro-2-(pyrimidin-2-yl)phenyl)((1S,4S,6R)-6-((5-(trifluoromethyl)pyrazin-2-yl)amino)-2-azabicyclo[2.2.1]heptan-2-yl)methanone]	–	–	–
8 nM	612 nM	7 nM	O=C(c1cccc(F)c1-c1ncccn1)N1C[C@H]2C[C@@H](Nc3ncc(C(F)(F)F)cn3)[C@@H]1C2 [Example 68, (3-fluoro-2-(pyrimidin-2-yl)phenyl)((1S,4S,6R)-6-((5-(trifluoromethyl)pyrimidin-2-yl)amino)-2-azabicyclo[2.2.1]heptan-2-yl)methanone]	–	–	–
16 nM	1800 nM	16 nM	O=C(c1cccc(F)c1-c1ncccn1)N1C[C@@H]2CC[C@H]1[C@H](Oc1cnc(C(F)(F)F)cn1)C2 [Example 74, (3-fluoro-2-(pyrimidin-2-yl)phenyl)((1S,4R,6R)-6-((5-(trifluoromethyl)pyrazin-2-yl)oxy)-2-azabicyclo[2.2.2]octan-2-yl)methanone]	–	–	–
–	–	–	Cc1ccc(-n2nccn2)c(C(=O)N2C[C@@H]3CC[C@H]2[C@H](Oc2ccc(C(F)(F)F)cn2)C3)n1 [Example 76, (6-methyl-3-(2H-1,2,3-triazol-2-yl)pyridin-2-yl)((1S,4R,6R)-6-((5-(trifluoromethyl)pyridin-2-yl)oxy)-2-azabicyclo[2.2.2]octan-2-yl)methanone]	3 nM	211 nM	4 nM
13 nM	1700 nM	9 nM	Cc1ccc(-n2nccn2)c(C(=O)N2C[C@@H]3CC[C@H]2[C@H](Oc2cnc(C(F)(F)F)cn2)C3)n1 [Example 77, (6-methyl-3-(2H-1,2,3-triazol-2-yl)pyridin-2-yl)((1S,4R,6R)-6-((5-(trifluoromethyl)pyrazin-2-yl)oxy)-2-azabicyclo[2.2.2]octan-2-yl)methanone]	–	–	–
211 nM	> 10000 nM	156 nM	O=C(c1cccnc1-n1nccn1)N1C[C@H]2C[C@@H](Oc3ccc(C(F)(F)F)cn3)[C@@H]1C2 [Example 87, (2-(2H-1,2,3-triazol-2-yl)pyridin-3-yl)((1S,4R,6R)-6-((5-(trifluoromethyl)pyridin-2-yl)oxy)-2-azabicyclo[2.2.1]heptan-2-yl)methanone]	–	–	–
36 nM	> 10000 nM	45 nM	Cc1cnc(-n2nccn2)c(C(=O)N2C[C@H]3C[C@@H](Oc4ccc(C(F)(F)F)cn4)[C@@H]2C3)c1 [Example 88, (5-methyl-2-(2H-1,2,3-triazol-2-yl)pyridin-3-yl)((1S,4R,6R)-6-((5-(trifluoromethyl)pyridin-2-yl)oxy)-2-azabicyclo[2.2.1]heptan-2-yl)methanone]	–	–	–
8 nM	1100 nM	18 nM	O=C(c1ccccc1-c1ncc(F)cn1)N1C[C@H]2C[C@@H](Oc3ccc(C(F)(F)F)cn3)[C@@H]1C2 [Example 89, (2-(5-fluoropyrimidin-2-yl)phenyl)((1S,4R,6R)-6-((5-(trifluoromethyl)pyridin-2-yl)oxy)-2-azabicyclo[2.2.1]heptan-2-yl)methanone]	–	–	–
19 nM	2150 nM	15 nM	O=C(c1cccc(F)c1-c1ncc(F)cn1)N1C[C@H]2C[C@@H](Oc3ccc(C(F)(F)F)cn3)[C@@H]1C2 [Example 90, (3-fluoro-2-(5-fluoropyrimidin-2-yl)phenyl)((1S,4R,6R)-6-((5-(trifluoromethyl)pyridin-2-yl)oxy)-2-azabicyclo[2.2.1]heptan-2-yl)methanone]	–	–	–
6 nM	331 nM	8 nM	Cc1cccc(C(=O)N2C[C@H]3C[C@@H](Oc4ccc(C(F)(F)F)cn4)[C@@H]2C3)c1-c1ncc(F)cn1 [Example 91, (2-(5-fluoropyrimidin-2-yl)-3-methylphenyl)((1S,4R,6R)-6-((5-(trifluoromethyl)pyridin-2-yl)oxy)-2-azabicyclo[2.2.1]heptan-2-yl)methanone]	–	–	–
19 nM	362 nM	13 nM	Cc1ccc(-c2ncccn2)c(C(=O)N2C[C@H]3C[C@@H](Oc4ccc(C(F)(F)F)cn4)[C@@H]2C3)n1 [Example 92, (6-methyl-3-(pyrimidin-2-yl)pyridin-2-yl)((1S,4R,6R)-6-((5-(trifluoromethyl)pyridin-2-yl)oxy)-2-azabicyclo[2.2.1]heptan-2-yl)methanone]	–	–	–
76 nM	3100 nM	125 nM	O=C(c1nccnc1-c1ccccc1)N1C[C@H]2C[C@@H](Oc3ccc(C(F)(F)F)cn3)[C@@H]1C2 [Example 93, (3-phenylpyrazin-2-yl)((1S,4R,6R)-6-((5-(trifluoromethyl)pyridin-2-yl)oxy)-2-azabicyclo[2.2.1]heptan-2-yl)methanone]	–	–	–
30 nM	848 nM	35 nM	O=C(c1cccc(F)c1-c1ncccn1)N1C[C@H]2C[C@@H](Oc3cccc(C(F)(F)F)n3)[C@@H]1C2 [Example 94, (3-fluoro-2-(pyrimidin-2-yl)phenyl)((1S,4R,6R)-6-((6-(trifluoromethyl)pyridin-2-yl)oxy)-2-azabicyclo[2.2.1]heptan-2-yl)methanone]	–	–	–
37 nM	137 nM	29 nM	O=C(c1cccc(F)c1-c1ncccn1)N1C[C@H]2C[C@@H](Oc3cc(C(F)(F)F)ccn3)[C@@H]1C2 [Example 95, (3-fluoro-2-(pyrimidin-2-yl)phenyl)((1S,4R,6R)-6-((4-(trifluoromethyl)pyridin-2-yl)oxy)-2-azabicyclo[2.2.1]heptan-2-yl)methanone]	–	–	–
15 nM	1100 nM	21 nM	O=C(c1ccccc1-n1nccn1)N1C[C@H]2C[C@@H](Oc3ncc(C(F)(F)F)cc3F)[C@@H]1C2 [Example 97, (2-(2H-1,2,3-triazol-2-yl)phenyl)((1S,4R,6R)-6-((3-fluoro-5-(trifluoromethyl)pyridin-2-yl)oxy)-2-azabicyclo[2.2.1]heptan-2-yl)methanone]	–	–	–
28 nM	1200 nM	37 nM	Cc1ccc(-n2nccn2)c(C(=O)N2CC3CC(Oc4ncc(C(F)(F)F)cc4F)C2C3)n1 [Example 98, (1S,4R,6R)-6-((3-fluoro-5-(trifluoromethyl)pyridin-2-yl)oxy)-2-azabicyclo[2.2.1]heptan-2-yl)(6-methyl-3-(2H-1,2,3-triazol-2-yl)pyridin-2-yl)methanone]	–	–	–
10 nM	725 nM	11 nM	O=C(c1ccccc1-c1ncccn1)N1C[C@H]2C[C@@H](Oc3ncc(C(F)(F)F)cc3F)[C@@H]1C2 [Example 99, ((1S,4R,6R)-6-((3-fluoro-5-(trifluoromethyl)pyridin-2-yl)oxy)-2-azabicyclo[2.2.1]heptan-2-yl)(2-(pyrimidin-2-yl)phenyl)methanone]	–	–	–
